From PMC3025356, “Mechanism of the Ca^2+-Dependent Interaction between S100A4 and Tail Fragments of Nonmuscle Myosin Heavy Chain IIA” (Journal of Molecular Biology, 2011)

Assays:
[1] = target: T1, S100A4 (Homo sapiens, UniProt P26447); experiment: Quin-2 fluorescence, Ca^2+ dissociation from S100A4 in the presence of target peptides; type: binding; settings: 50 μM peptide premixed with 10 μM S100A4; 100 mM NaCl, 10 mM Hepes, 100 μM Ca^2+, pH 7.5, 20 °C
T1 construct: We used full-length S100A4 for this analysis; made in house; host or cells: Escherichia coli BL21(DE3)
Procedure: Ca^2+ dissociation measurements for wild-type S100A4, using Quin-2 as described above, were repeated as a control for the effect of target peptides on this process. On mixing 10 μM S100A4 in the presence of Ca^2+ with 100 μM Quin-2, the observed profile was fitted to a single exponential with kobs = 17 s^− 1 (Fig. 5a; cf. k− 1 in Scheme 1).
Fig. 5 Dissociation of Ca^2+ from S100A4 in the absence and in the presence of target peptides monitored using Quin-2 fluorescence. (a) Mixed with 100 μM Quin-2 was 10 μM S100A4 + 50 μM Ca^2+ (stopped-flow reaction chamber concentrations). A superposed fit to a single exponential yields kobs = 17 s^− 1. […] (d) As in (a), but with 2.5 μM M200 premixed with 5 μM S100A4. A biphasic exponential fit yielded rate constants of 13 s^− 1 (A = 26%) and 0.30 s^− 1 (A = 74%). […] Experiments were carried out in either 20 mM NaCl, 20 mM Tris, 1 mM DTT, and 100 μM Ca^2+ at pH 7.5 and 20 °C (a and b; cf. Malashkevich et al.[17]), or 100 mM NaCl, 10 mM Hepes, and 100 μM Ca^2+ at pH 7.5 and 20 °C (c and d). […] Rate constants were unaffected by the inclusion of 1 mM Mg^2+.
Stopped-flow measurements were carried out using an SX18-MV apparatus (Applied Photophysics Ltd., Leatherhead, UK) with a dead time of 1.5 ms.[40] Records were generally captured on a logarithmic time base. Absorption (turbidity) measurements were usually recorded using a 10-mm pathlength, while fluorescence was recorded with a 2-mm pathlength for excitation and emission. The stated concentrations of components refer to the reaction chamber after mixing, unless otherwise indicated. Tyrosine fluorescence was excited at 280 nm, and the emission was collected through a UG11 bandpass filter plus a 305-nm longpass filter.[18] Fluorescein fluorescence was excited at 480 nm, and the emission was detected through a 515-nm longpass filter. Quin-2 fluorescence was measured by excitation at 336 nm, and emission was collected with a 455-nm longpass filter. For simultaneous recording of light scatter, a second channel was monitored through a UG11 filter. […]

[2] = target: T1, S100A4; experiment: Competition of M32/M16^N with M200 for S100A4 (turbidity); type: biochemical; settings: 250 μM peptide, 5 μM M200, 10 μM S100A4, Ca^2+
Procedure: Fig. 9 Dissociation of M200 filaments by S100A4. (a) Initially, M200 was added (i) from a concentrated stock in 0.5 M NaCl to give a final concentration of 5 μM M200 (with respect to the polypeptide chain) in 100 mM NaCl, 10 mM Hepes, and 0.1 mM Ca^2+ at pH 7.5 and 20 °C. A biphasic rise in turbidity was recorded for 200 s (continuous line). Then 10 μM S100A4 (with respect to monomer concentration) was added (ii), followed by 0.2 mM EGTA (iii) and 1 mM Ca^2+ (iv). […] (b) M200 was diluted (i) into 100 mM NaCl to form filaments as in (a), then 5 μM S100A4 was added (ii), causing a 54% drop in turbidity. A further 5 μM S100A4 (iii) caused turbidity to fall to almost zero. (c) Stopped-flow records monitoring the dissociation of 5 μM M200 filaments on jumping [NaCl] from 100 mM to 120 mM NaCl. Other components of the buffer were 20 mM Hepes, 1 mM Mg^2+, and 100 μM Ca^2+ at pH 7.5 and 20 °C. […] In the presence of 20 μM S100A4 (lower trace), the turbidity decreased by 87% with a rate constant of 0.2 s^− 1.
Further information on Scheme 2 was obtained from competition assays. […] An independent estimate of K5 based on the Ca^2+ dependence of the turbidity assay yielded a value of 0.003 μM (see Supplementary Data).
The decrease in fluorescence, […]
that F-M16N binding was slightly faster. […]
A second estimate was calculated from the apparent Ca2+ binding constant observed in the turbidity assay […]

[3] = target: T1, S100A4; settings: peptide residues 1908–1923; cited from earlier work
Excerpt: Our kinetic studies are also used to redefine the minimal binding fragment of the NM-MHC IIA tail (Fig. 1). Using a series of overlapping fragments and a blot overlay assay, Kriajevska et al. previously mapped the S100A4 binding site of nonmuscle myosin IIA to a 29-amino-acid region near the C-terminus (residues 1908–1936 in the current numbering system).[9]

[4] = target: T1, S100A4; experiment: Competition with F-M16^N binding to S100A4 (fluorescence anisotropy); settings: read-out: Kd (K2) by competition
Procedure: Titration (circles) was carried out in 20 mM NaCl, 10 mM Hepes, 1 mM Mg^2+, and 100 μM Ca^2+ at pH 7.5 and 20 °C. […] (squares).
Fluorescence spectra and anisotropy measurements were recorded using an SLM 8000 spectrofluorimeter (SLM, Urbana, IL). Fluorescein anisotropy measurements were carried out in L-format using a 515-nm emission filter. The four combinations of vertical and horizontal polarisers (vv, vh, hh, and hv) were each recorded for 30 s, and then the initial setting (vv) was re-read to check for signal stability. Calculations of the total fluorescence (Ivv + 2Ivh) and anisotropy (Ivv − Ivh/(Ivv + 2Ivh)), corrected for the g factor (hh/hv), were performed using an Excel spreadsheet. […] Note that the small correction for the emission intensity weighting to the observed anisotropy was not applied to these competitive titrations as the error will tend to cancel.

T1 sequence (P26447 whole entry): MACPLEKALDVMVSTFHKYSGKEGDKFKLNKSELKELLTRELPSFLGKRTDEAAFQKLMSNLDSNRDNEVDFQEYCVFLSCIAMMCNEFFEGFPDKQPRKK

## CSCC[C@H](NC(=O)[C@H](C)NC(=O)[C@H](CC(=O)O)NC(C)=O)C(=O)N[C@@H](CC(N)=O)C(=O)N[C@@H](CCCNC(=N)N)C(=O)N[C@@H](CCC(=O)O)C(=O)N[C@H](C(=O)N[C@@H](CO)C(=O)N[C@@H](CO)C(=O)N[C@@H](CC(C)C)C(=O)N[C@@H](CCCCN)C(=O)N[C@@H](CC(N)=O)C(=O)N[C@@H](CCCCN)C(=O)N[C@@H](CC(C)C)C(=O)N[C@@H](CCCNC(=N)N)C(=O)N[C@@H](CCCNC(=N)N)C(N)=O)C(C)C [M16^N]
[1]
  kobs, Ca^2+ dissociation with peptide: 16 s^− 1
[2]
  inhibition of turbidity change amplitude: no effect
[3]
  difference in binding constant vs longer fragments (1851–1960, 1893–1923): ~2 -fold
[4]
  Kd: ≥ 100 µM
